Results taken from patent publication US8642096B2, “Pharmaceutical composition containing herbal extract for prevention or treatment of nephritis” (Ahn-Gook Pharmaceutical Co., Ltd., priority 2009, dated 2014).
Values joined by “and” are separate entries in the source; they are usually repeats but may differ in a detail not shown here. Equal entries are not always repeated.

Key:
[1] = tested on: croton oil-induced ear edema; assay: Mouse ear edema inhibition test (croton oil); assay type: in vivo, male ICR mouse; conditions: ear swelling thickness 4 hours after 2.5% croton oil, oral 20 mg/kg, 1 hour before
Protocol: To achieve active fraction and ingredient identification of herbal extracts, an activity-guided sub-fractionation was conducted by way of a mouse ear edema inhibition test. To evaluate the edema inhibitory effects of the MC, EA and BuOH fractions from the herbal extracts of Examples 1.2 and 1.3 and the three compounds identified above, an activity test was conducted according to a method by Hee Kee Kim et al. [Hee Kee Kim et al., Arch. Pharm. Res. 16(1), 1993, 18-24]. The positive control group received Indomethacin (purchased from Sigma) at a dosage of 20 mg/kg. The test group received 200 mg/kg of the MC, EA or BuOH fraction, or 20 mg/kg of the compound 1, 2 or 3. One hour after the oral administration, 2.5% croton oil (purchased from Sigma) was applied to the one ear of a male ICR mouse (7 weeks old, 28-32 g, Orient) to induce an acute inflammation. In 4 hours, the swelling of the ear was measured in terms of thickness.

[2] = tested on: gentamicin-induced nephritis model; assay: Therapeutic effect of compounds 1-3 on gentamicin-induced nephritis model (Experimental Example 10); assay type: in vivo, male SD rats; conditions: for Creatinine / B.U.N.: 20 mg/kg; for Creatinine: negative control 1.32 ± 0.12, normal 0.45 ± 0.01; for B.U.N.: negative control 83.0 ± 5.1, normal 12.4 ± 0.6
Protocol: A normal group was subjected to the tests, where a nephritis-inducing factor, gentamicin (purchased from Whail Pharma. Co., Ltd.) was administered to male SD rats (7 weeks old, 195-205 g, Orient) at a dosage of 240 mg/kg for 6 days through an intraperitioneal injection to induce nephritis. Among the test rats with induced nephritis, the test groups other than the negative control group received the 2 test drugs of Example 2 or the test drug of Example 3.1 or 3.4 orally at a daily dosage of 400 mg/kg. The test rats were autopsied 7 days after the oral administrations. The blood samples collected were analyzed to detect blood urea nitrogen (B.U.N.) and creatinine.
To evaluate the therapeutic effect for nephritis of the three compounds of Experimental Example 9, the procedures were carried out in the same manner of Experimental Example 1 to measure the B.U.N and creatinine contents in the gentamicin-induced nephritis model. Reagents were the compounds 1, 2 and 3, which were the active fractions from the herbal extracts of Cinnamomi Cortex and Prunella Spica.

[3] = relative to negative control group

SMILES	% Inhibition [1] [%]	Creatinine [2] [mg/dL]	B.U.N. [2] [mg/dL]	% Inhibition ([1]; 20 mg/kg)	effect on blood urea nitrogen (B.U.N.) content [2, 3]	effect on creatinine content [2, 3]	% Inhibition ([1]; listed as positive control group, 20 mg/kg) [%]
O=C(/C=C/c1ccc(O)c(O)c1)O[C@H](Cc1ccc(O)c(O)c1)C(=O)O [Compound 3, Rosmarinic acid]	28.90	0.97 ± 0.06	63.1 ± 7.2	–	–	–	–
O=C(O)C=Cc1ccccc1 [Compound 1, Cinnamic acid]	–	0.81 ± 0.07	47.7 ± 5.7	42% and 42.40%	showed an effect of reducing the blood urea nitrogen (B.U.N.) content	reduced the creatinine content	–
COc1ccc2c(c1)c(CC(=O)O)c(C)n2C(=O)c1ccc(Cl)cc1 [Positive Control Group, Indomethacin, reference compound]	–	–	–	38.81%	–	–	39
O=c1ccc2ccccc2o1 [Compound 2, Coumarin]	–	0.88 ± 0.06	50.9 ± 4.7	39% and 38.79%	showed an effect of reducing the blood urea nitrogen (B.U.N.) content	–	–
